Results reported in patent USRE42748E1, “Oral DTPA for radionuclide chelation” (priority 2006, dated 2011).
Where “and” joins values, the source holds several entries; their conditions need not be identical. Equal entries are not always repeated.

Legend:
[1] = test system: harvested rat small intestinal segments: Jejunum; test: Ussing chamber mucosal to serosal transport across rat jejunum; assay type: in vitro ADME
Method: (§1) The primary objective of these in vitro studies was to determine a formulation containing permeation enhancers/other additives that achieved maximum transport of DTPA from mucosal to serosal side of the intestine. The mucosal to serosal absorption of DTPA (Zinc/Calcium) was measured in vitro across harvested rat intestinal segments and colon, in an EasyMount Ussing System (Physiological Instruments Inc., CA, Item #EM-CSYS-8). The Ussing chamber consists of two diffusion chambers, a heating block for temperature control, needle valves for gas flow adjustment and gas lift stirring, and Ag/AgCl voltage and current electrodes for measuring transepithelial voltage and for passing current. Representative sections of the harvested rat small intestinal segments (jejunum, duodenum, and ileum) and the rat colon were mounted on sliders placed between the chambers, and DTPA (Zinc/Calcium) transport across the sections was monitored. Aliquots of sample solution were removed from the ‘serosal’ side at 30 min intervals and analyzed by high performance liquid chromatography (HPLC). The change in mucosal to serosal transport of DTPA (Zinc/Calcium) in the presence of different permeation enhancers was determined.
Zn-DTPA and Ca-DTPA was dissolved in HEPES buffer (VWR, Brisbane, Calif.), with or without additives, at the predetermined drug concentrations. HEPES buffer was used as the base mucosal and serosal fluid. Before initiating the experiment, 5 ml of HEPES buffer was added to each of the two chambers (mucosal and serosal) and was allowed to equilibrate for 20 min. Next, the mucosal buffer was replaced by the appropriate formulation to be tested and the experiment was initiated. Aliquots (0.5 ml) were collected from the serosal side and were replaced with an equivalent amount of fresh HEPES buffer (maintained at physiological temperature). The aliquotted samples from the serosal side were analyzed by HPLC.
Owing to the expected variation in the in vitro conditions and harvested rat intestinal segments, five replicates were used per experimental condition. In order to compare data obtained from the different experiments, the apparent permeability coefficients (Papp) were calculated according to:
[formula] Where, dQ/dt is the linear appearance rate of mass in receiver compartment, C0 is the initial solute concentration in donor compartment, and A is the surface area. The higher the Papp value, the better the permeation property. The similarity of the Papp values indicates similar behavior for the two DTPA compounds.
We then evaluated transport of Zn-DTPA and Ca-DTPA through jejunum segments with and without Labrasol.
We then tested the transport of 100 mg/ml DTPA in HEPES buffer with and without added enhancers across jejunum segments; results are in Table 3.

[2] = test system: harvested rat small intestinal segments: Ileum; test: Ussing chamber mucosal to serosal transport across rat ileum; assay type: in vitro ADME; settings: 5 mg/ml of DTPA in HEPES Buffer
Method: as §1
(§2) Zn-DTPA and Ca-DTPA was dissolved in HEPES buffer (VWR, Brisbane, Calif.), with or without additives, at the predetermined drug concentrations. […]

[3] = test system: harvested rat small intestinal segments: Duodenum; test: Ussing chamber mucosal to serosal transport across rat duodenum; assay type: in vitro ADME; settings: 5 mg/ml of DTPA in HEPES Buffer
Method: as §1, §2

rat colon = test: Ussing chamber mucosal to serosal transport across rat colon; assay type: in vitro ADME; settings: 5 mg/ml of DTPA in HEPES Buffer
Method: as §1, §2

iron-loaded dogs = test: Excretion of iron after repeat dose administration of DTPA in iron-loaded dogs; assay type: in vivo, beagle dogs; design: Excretion of Fe in urine / Excretion of Fe in urine, Total: unit not given here; settings: for Excretion of Fe in urine, Total: sum 4 hr to 120 hr; for excretion of Fe after oral DTPA as % of the amount excreted by intravenously treated animals: oral vs IV
Method: The objective of this study was to evaluate the efficacy of an oral formulation of DTPA to enhance the excretion of iron in urine from iron-loaded dogs. Iron-loaded dogs were used in the study as a surrogate model for contamination by transuranic elements.
Two treatment groups, consisting of one male and one female dog, were compared. Ca-DTPA in sterile saline was administered by the intravenous route, 10 mg/kg, on Day 1, followed by 4 days of treatment with Zn-DTPA (10 mg/kg daily). The oral treatment group was also administered 10 mg/kg in 20% Labrasol® in capsules, with Ca-DTPA on Day 1 and Zn-DTPA on Days 2-5. Blood was collected from each dog at the following time points: predose and 1, 4, 8, and 24 hr after dose administration on Day 1, and at 24 hr postdose on Days 2-5. Dogs were maintained in metabolism cages for the study, and urine was collected at 4, 8, and 24 hr after the Day 1 dose, and every 24 hr after the Day 2-5 doses. Collected samples were analyzed for iron, calcium, and zinc by Perkin-Elmer ICP (Inductively Coupled Plasma) unit.

[4] = Oral bioavailability of two additional Ca-DTPA formulations in beagle dogs (SRI Study B221B-06)
Method: Oral bioavailability is assessed using the Beagle dog, or equivalent model, wherein levels of plasma Ca/Zn-DTPA from an orally administered composition are compared to levels obtained after i.v. administration using the calculation: BA=AUCPO×Doseiv/AUCiv×DosePO; where BA=bioavailability and AUC=area under the plasma concentration-time curve.
Two additional oral formulations of Ca-DTPA were studied in male and female beagle dogs to determine the effect of modifications in the formulation on oral bioavailability (SRI Study B221B-06). The dose administered was 10 mg/kg plus ˜100 μCi/kg. One male and one female dog received the drug in a bead formulation that consisted of 42.22% DTPA, 25.33% Labrasol®, 8.44% CAB-O-SIL EH5, 24.0% HPMC K110M, and 17.17% water; the other male and female dog were administered DTPA in a liquid formulation that consisted of 20% Labrasol®. In both dose groups, the formulated drug was added to size “0” capsules, then sealed and stored until administration.

[5] = Bioavailability study after liquid dose of radiolabeled DTPA (14C) in male Sprague-Dawley rats (SRI Study B230-06); assay type: in vivo
Method: The objective of this study was to determine the oral bioavailability of Ca-DTPA using radioactive ^14C-DTPA tracer for detection in male Sprague Dawley rats after oral administration in several different formulations. After oral gavage of Ca-DTPA or DTPA (free acid) in sterile water, the oral bioavailability of DTPA is estimated to be about 7% in these two treatment groups. […] In Group 7, which also was administered DTPA in 20% Labrasol (+Quinidine pretreatment), the mean bioavailability was 10%, but this group had greater interindividual variability than seen in the other treatment groups.

SMILES: O=C([O-])CN(CCN(CC(=O)[O-])CC(=O)[O-])CCN(CC(=O)[O-])CC(=O)[O-].[Na+].[Na+].[Na+].[Zn+2] [Zn-DTPA, zinc diethylenetriaminepentaacetate]
- Papp ([1]; Jejunum, 5 mg/ml of drug in HEPES Buffer): 4.54 ×10⁻⁶ cm/s and 4.28 ×10⁻⁶ cm/s
- Papp ([1]; jejunum, 5 mg/ml of drug in HEPES Buffer containing 40% Labrasol): 19.08 ×10⁻⁶ cm/s
- Papp ([1]; jejunum, 100 mg/ml DTPA in HEPES buffer, 5% TPGS + 5% Labrasol): 6.34 ×10⁻⁶ cm/s
- Papp ([1]; jejunum, 100 mg/ml DTPA in HEPES buffer, 5% Tween 80 + 5% Labrasol): 13.27 ×10⁻⁶ cm/s
- Papp ([1]; jejunum, 100 mg/ml DTPA in HEPES buffer, 20% Bile Salt): 19.65 ×10⁻⁶ cm/s
- Papp ([1]; jejunum, 100 mg/ml of drug in HEPES Buffer containing 10% Labrasol): 4.21 ×10⁻⁶ cm/s
- Papp ([1]; jejunum, 100 mg/ml of drug in HEPES Buffer containing 20% Labrasol): 3.53 ×10⁻⁶ cm/s
- Papp ([1]; jejunum, 100 mg/ml of drug in HEPES Buffer containing 40% Labrasol): 6.81 ×10⁻⁶ cm/s
- Papp ([1]; jejunum, 100 mg/ml of drug in HEPES Buffer only): 5.86 ×10⁻⁶ cm/s
- Papp [2]: 2.07 ×10⁻⁶ cm/s
- Papp [3]: 1.65 ×10⁻⁶ cm/s
- Papp (rat colon): 2.39 ×10⁻⁶ cm/s

SMILES: O=C(O)CN(CCN(CC(=O)O)CC(=O)O)CCN(CC(=O)O)CC(=O)O [DTPA]
- Excretion of Fe in urine (iron-loaded dogs; Dog 1M, IV 10 mg/kg daily, Time 48 hr): 0.6044
- Excretion of Fe in urine (iron-loaded dogs; Dog 1M, IV 10 mg/kg daily, Time 72 hr): 0.1732
- Excretion of Fe in urine (iron-loaded dogs; Dog 1M, IV 10 mg/kg daily, Time 96 hr): 0.1762
- Excretion of Fe in urine (iron-loaded dogs; Dog 1M, IV 10 mg/kg daily, Time 120 hr): 0.2324
- Excretion of Fe in urine, Total (iron-loaded dogs; Dog 1M, IV 10 mg/kg daily): 1.444
- Excretion of Fe in urine (iron-loaded dogs; Dog 1M, IV 10 mg/kg, Time 4 hr): 0.0970
- Excretion of Fe in urine (iron-loaded dogs; Dog 1M, IV 10 mg/kg, Time 8 hr): 0.0471
- Excretion of Fe in urine (iron-loaded dogs; Dog 1M, IV 10 mg/kg, Time 24 hr): 0.1136
- Excretion of Fe in urine (iron-loaded dogs; Dog 1M, IV in saline 10 mg/kg (Ca-DTPA Day 1, Zn-DTPA Days 2-5), Time 0 hr (predose)): 0.1297
- Excretion of Fe in urine (iron-loaded dogs; Dog 2F, IV 10 mg/kg daily, Time 48 hr): 0.2686
- Excretion of Fe in urine (iron-loaded dogs; Dog 2F, IV 10 mg/kg daily, Time 72 hr): 0.1623
- Excretion of Fe in urine (iron-loaded dogs; Dog 2F, IV 10 mg/kg daily, Time 96 hr): 0.2884
- Excretion of Fe in urine (iron-loaded dogs; Dog 2F, IV 10 mg/kg daily, Time 120 hr): 0.0166
- Excretion of Fe in urine, Total (iron-loaded dogs; Dog 2F, IV 10 mg/kg daily): 0.925
- Excretion of Fe in urine (iron-loaded dogs; Dog 2F, IV 10 mg/kg, Time 4 hr): 0.0975
- Excretion of Fe in urine (iron-loaded dogs; Dog 2F, IV 10 mg/kg, Time 8 hr): 0.0124
- Excretion of Fe in urine (iron-loaded dogs; Dog 2F, IV 10 mg/kg, Time 24 hr): 0.0792
- Excretion of Fe in urine (iron-loaded dogs; Dog 2F, IV in saline 10 mg/kg (Ca-DTPA Day 1, Zn-DTPA Days 2-5), Time 0 hr (predose)): 0.1158
- Excretion of Fe in urine (iron-loaded dogs; Dog 3M, Oral 10 mg/kg in 20% Labrasol capsules (Ca-DTPA Day 1, Zn-DTPA Days 2-5), Time 0 hr (predose)): 0.0947
- Excretion of Fe in urine (iron-loaded dogs; Dog 3M, Oral 10 mg/kg in 20% Labrasol capsules, Time 4 hr): 0.0654
- Excretion of Fe in urine (iron-loaded dogs; Dog 3M, Oral 10 mg/kg in 20% Labrasol capsules, Time 8 hr): 0.0153
- Excretion of Fe in urine (iron-loaded dogs; Dog 3M, Oral 10 mg/kg in 20% Labrasol capsules, Time 24 hr): 0.1000
- Excretion of Fe in urine (iron-loaded dogs; Dog 3M, Oral 10 mg/kg in 20% Labrasol capsules, Time 48 hr): 0.1232
- Excretion of Fe in urine (iron-loaded dogs; Dog 3M, Oral 10 mg/kg in 20% Labrasol capsules, Time 72 hr): 0.0506
- Excretion of Fe in urine (iron-loaded dogs; Dog 3M, Oral 10 mg/kg in 20% Labrasol capsules, Time 96 hr): 0.1869
- Excretion of Fe in urine (iron-loaded dogs; Dog 3M, Oral 10 mg/kg in 20% Labrasol capsules, Time 120 hr): 0.0506
- Excretion of Fe in urine, Total (iron-loaded dogs; Dog 3M, Oral 10 mg/kg in 20% Labrasol capsules): 0.591
- Excretion of Fe in urine (iron-loaded dogs; Dog 4F, Oral 10 mg/kg in 20% Labrasol capsules (Ca-DTPA Day 1, Zn-DTPA Days 2-5), Time 24 hr): 0.0314
- Excretion of Fe in urine (iron-loaded dogs; Dog 4F, Oral 10 mg/kg in 20% Labrasol capsules, Time 48 hr): 0.1162
- Excretion of Fe in urine (iron-loaded dogs; Dog 4F, Oral 10 mg/kg in 20% Labrasol capsules, Time 72 hr): 0.0210
- Excretion of Fe in urine (iron-loaded dogs; Dog 4F, Oral 10 mg/kg in 20% Labrasol capsules, Time 96 hr): 0.0406
- Excretion of Fe in urine (iron-loaded dogs; Dog 4F, Oral 10 mg/kg in 20% Labrasol capsules, Time 120 hr): 0.1089
- Excretion of Fe in urine, Total (iron-loaded dogs; Dog 4F, Oral 10 mg/kg in 20% Labrasol capsules): 0.318
- time of highest excretion of Fe in the urine (iron-loaded dogs; female Dog 4 (oral group)): 48 h
- excretion of Fe after oral DTPA as % of the amount excreted by intravenously treated animals (iron-loaded dogs; female dogs): 34%
- time of highest excretion of Fe in the urine (iron-loaded dogs; male Dog 1 (intravenous group)): 48 h
- excretion of Fe after oral DTPA as % of the amount excreted by intravenously treated animals (iron-loaded dogs; male dogs): 40%
- time of highest excretion of Fe in the urine (iron-loaded dogs; the other two dogs (Dog 2 IV, Dog 3 oral)): 96 h
- dose excreted in the feces ([4]; by 24 hr, both treatment groups (bead and liquid capsule)): 73-74%
- dose recovered in the excreta ([4]; by 264 hr after dose administration, oral Labrasol formulations): 95-96%
- % Bioavailability Mean ± SD ([5]; Group 4 Oral, 20% Labrasol): ~12%
- % Bioavailability Mean ± SD ([5]; Group 7 Oral, 0.15 mM Quinidine pretreatment then 20% Labrasol): 10%
- % Bioavailability ([5]; Group 7 Oral, 0.15 mM Quinidine pretreatment then 20% Labrasol, individual rats): 19%
